Assay results from US7781580B2, “Stilbene derivatives as new cancer therapeutic agents” (Virginia Commonwealth University, priority 2007, dated 2010).

Experiments:
Tubulin (>99% pure) = experiment: tubulin polymerization assay (OD 340 nm); format: biochemical; conditions: OD340 nm; nocodazole and paclitaxel 10 μM
[1] = tested on: MDA-MB231 breast cancer cells; experiment: Alamar Blue cell growth inhibition, MDA-MB231; format: cell-based; conditions: based on previous IC50 data
Procedure, shortened: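 Cells at 50% confluence treated in triplicate for 48 hours with 0, 0.01, 0.03, 0.1, 0.3, 1.0, 3.0, 10 μM compound or 0.1% DMSO vehicle. Alamar Blue added at 1/10 volume for 2 hours, absorbance at 570 and 600 nm; percentage growth calculated against untreated cells using the extinction-coefficient formula.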

[2] = tested on: c-kit-positive progenitor cells (engraftment); experiment: bone marrow transplantation of stilbene-treated progenitor cells; format: in vivo, mice; conditions: cells incubated at 0.1 or 0.5 μM for 16 hours
Description: FIG. 16. (a) Effect of stilbenes in normal bone marrow progenitor cells. c-kit-positive bone marrow mononuclear cells were isolated for incubation with stilbenes 4a or 4c at 0.1 or 0.5 […] for 16 hours. Cells were harvested for fixation and PI staining. Cell cycle analysis and quantification of the subG0/1 population were analyzed by FACScan flow cytometry. The percentages of the apoptotic population were indicated. Shown are the representatives of two independent experiments. (b) Effect of stilbenes in HL60 cells as positive control. HL60 cells were treated with stilbenes 4a or 4c in the same medium as the positive control. (c) Colony forming assay of the stilbene-treated c-kit-positive cells. […] Cells were incubated for 14 days and the grossly visible colonies were counted. […] Mice were monitored for survival and lineage-specific donor engraftment by flow cytometry analysis of peripheral blood. […]
C57BL/6J (H2b, CD45.2) mice served as bone marrow donors and were between 6-10 weeks of age. […] Peripheral blood engraftment in recipient mice was assessed by flow cytometry analysis for CD3+ (145-2C11; BD Biosciences, San Jose, Calif.) T-cells, B220+ (RA3-6B2) B-cells, Mac1+ (M1/70.15) monocytes, and Gr1+ (8C5) granulocytes and distinguished between donor versus recipient with anti-CD45.1 (A20) and anti-CD45.2 (104) monoclonal antibodies.

[3] = tested on: HL60 leukemic cells (xenograft); experiment: HL60 xenograft model in SCID mice; format: in vivo
Description: FIG. 20. Effect of stilbene 4a in vivo. (a) Induction of cell death in vivo by stilbene 4a. Tumor was harvested at 24 hours after treatment for TUNEL assay. (b) Histological sections of tumor. Tumor harvested at 24 hours after injection of stilbene 4a was analyzed by H & E staining. The area with lighter color is the necrotic region. (c) Tumor growth suppression. SCID mice were injected subcutaneously with 5×10^6 HL60 cells at each flank. Once the diameter of tumor reached 5 mm in diameter in majority of mice, mice were treated with 5 daily injection of stilbene 4a. Tumor volume was calculated by the long and short axis of tumor and plotted against days. Each group contains 5 mice.
HL60 leukemic cells were injected subcutaneously into ICR-scid mice (Taconic Inc.) on flank. After tumor becomes visible after 12 days, Mice will be treated with stilbene 4a by intravenous injection after dissolved in 10% DMSO in normal saline. For acute effect study, mice were sacrificed 24 hours after injection and tumor and bone marrow were harvested for histological staining and flow cytometry analysis. For long term effect study, stilbenes were injected intravenously from tail veins at 2 or 10 mg/kg for 5 consecutive days. Negative control mice were treated with 10% DMSO in normal saline and positive control mice were treated with Ara-C at 5 mg/kg. Tumor volume was measured twice a week for 4 weeks by the long and short axes of tumor. Volume was calculated by the formula ab^2/2, in which “a” represents the long axis and “b” the short axis of tumor. Mice were euthanized if the calculated tumor reached 10% of the body weight.

COc1cc(/C=C\c2ccc(OC)c(N)c2)cc(OC)c1 [4a, (Z)-5-[2-(3,5-Dimethoxy-phenyl)-vinyl]-2-methoxy-phenylamine]
effect on tubulin polymerization (Tubulin (>99% pure)): suppressed polymerization in a dose-dependent manner
times less potent than CA4 [1]: 10
radioprotection of lethally irradiated mice by treated progenitor cells [2]: all mice were rescued from lethal irradiation
tumor growth suppression ([3]; 10 mg/kg intravenously daily for 5 days, 12 days after the first injection): 50%
percentage of apoptosis in tumor (TUNEL) ([3]; 10 mg/kg intravenously, 24 hours): 22%
percentage of apoptosis in tumor (TUNEL) ([3]; 50 mg/kg intravenously, 24 hours): 62%
percentage of apoptosis in tumor (TUNEL) ([3]; 100 mg/kg intravenously, 24 hours): 58%
bone marrow TUNEL (acute marrow toxicity) ([3]; 50 and 100 mg/kg, 24 hours): No increase in TUNEL positive cells was observed
